From the supplement of paper PMC8671470

Key:
Details in all cases: 72 h
BV-173 [1] = test system: BV-173
In short: (§1)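 Seeded in RPMI 1640 at densities within the linear growth range, fifteen myeloid leukaemia cell lines were dispensed into 384-well plates with acoustically pre-printed compounds spanning five tenfold doses from 1 to 10,000 nM, in duplicate. The plates were kept for 72 h at 37 °C in 5% CO2 before luminescent ATP viability was measured and normalised to vehicle and to a positive control at 10 µM. Curves were fitted with a four-parameter log-logistic model. The IC50 was taken from those curves.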

HEL = test system: HEL
In short: as §1

HL-60 [2] = test system: HL-60
In short: as §1

K-562 [3] = test system: K-562
In short: as §1

KCL-22 [4] = test system: KCL-22
In short: as §1

KG-1 [5] = test system: KG-1
In short: as §1

KU-812 [6] = test system: KU-812
In short: as §1

LAMA-84 [7] = test system: LAMA-84
In short: as §1

ML-2 [8] = test system: ML-2
In short: as §1

MOLM-13 [9] = test system: MOLM-13
In short: as §1

MV4-11 [10] = test system: MV4-11
In short: as §1

Mono-Mac-6 = test system: Mono-Mac-6
In short: as §1

NOMO-1 [11] = test system: NOMO-1
In short: as §1

SHI-1 = test system: SHI-1
In short: as §1

THP-1 [12] = test system: THP-1
In short: as §1

HL-60 [13] = assay: cell viability (% survival relative to DMSO control); higher = less cytotoxic
In short: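 In 384-well plates, the full library was rescreened in duplicate on HL-60 cells in RPMI 1640 with 10% FBS, at 1–10,000 nM in five tenfold concentrations, for 72 h at 37 °C, 5% CO2. Each run also held DMSO or 100 nM of one of three metabolic inhibitors. Viability was measured by CellTiter-Glo and normalised to DMSO wells and to wells with proteasome inhibitor, present at 10 μM. Any area under the curve comes from four-parameter log-logistic fitting with drc and PharmacoGx.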

BV-173 [14] = assay: cell viability (% survival relative to DMSO control, bortezomib = 0%); higher = less cytotoxic
In short: (§2)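 Fifteen myeloid leukaemia cell lines (10 AML, 5 CML) were seeded at a density titrated to the linear growth range. They went into 384-well plates with compounds pre-printed at 1, 10, 100, 1000 or 10000 nM in duplicate. After 72 h at 37 °C with 5% CO2, viability was read by CellTiter-Glo luminescence. Values are percent survival, with vehicle set to 100% and a 10 µM positive control to 0%, averaged over the duplicates.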

HL-60 [15] = assay: as above
In short: as §2

K-562 [16] = assay: as above
In short: as §2

KCL-22 [17] = assay: as above
In short: as §2

KG-1 [18] = assay: as above
In short: as §2

KU-812 [19] = assay: as above
In short: as §2

LAMA-84 [20] = assay: as above
In short: as §2

ML-2 [21] = assay: as above
In short: as §2

MOLM-13 [22] = assay: as above
In short: as §2

MV4-11 [23] = assay: as above
In short: as §2

NOMO-1 [24] = assay: as above
In short: as §2

THP-1 [25] = assay: as above
In short: as §2

COc1ccc(C(=O)Nc2c(Cl)cncc2Cl)cc1OC1CCCC1 [Piclamilast]
Details	IC50 (cell viability) [µM]
BV-173 [1]	> 10
HEL	> 10
HL-60 [2]	> 10
K-562 [3]	> 10
KCL-22 [4]	> 10
KG-1 [5]	> 10
KU-812 [6]	> 10
LAMA-84 [7]	> 10
ML-2 [8]	> 10
MOLM-13 [9]	> 10
MV4-11 [10]	> 10
Mono-Mac-6	> 10
NOMO-1 [11]	> 10
SHI-1	> 10
THP-1 [12]	> 10

cell viability [%], HL-60 [13]
Details	0.001 µM	0.01 µM	0.1 µM	1 µM	10 µM
co-treatment: AZD3965 100 nM	104	104	95.5	105	107
co-treatment: DMSO vehicle	101	100.9	98.4	97.54	104.6
co-treatment: GSK2194069 100 nM	101.3	100	98.8	97.1	109.3
co-treatment: pictilisib 100 nM	107	107	96.4	95.35	106

cell viability [%]
Details	1 nM	10 nM	100 nM	1000 nM	10000 nM
BV-173 [14]	86.3	107	92.1	114	99.7
HL-60 [15]	87.1	103	65.2	87.5	115
K-562 [16]	90.5	111	90.7	108	83.1
KCL-22 [17]	95.3	101	92.7	102	108
KG-1 [18]	97.7	102	86	99.2	104
KU-812 [19]	91.4	94.6	90	105	99.1
LAMA-84 [20]	87.5	114	91.2	110	103
ML-2 [21]	84.4	104	102	88.2	110
MOLM-13 [22]	89.2	110	67.4	103	88.1
MV4-11 [23]	92.5	110	92.8	118	114
NOMO-1 [24]	87.1	104	94.6	97.1	110
THP-1 [25]	94	104	97.6	102	109

COc1cc(/C=C/C(=O)N2CCC=CC2=O)cc(OC)c1OC [Piperlongumine]
Details	IC50 (cell viability) [µM]
BV-173 [1]	1.62
HEL	3.03
HL-60 [2]	2.36
K-562 [3]	1.95
KCL-22 [4]	2.92
KG-1 [5]	3.33
KU-812 [6]	2.87
LAMA-84 [7]	3.22
ML-2 [8]	1.66
MOLM-13 [9]	1.93
MV4-11 [10]	0.959
Mono-Mac-6	2.38
NOMO-1 [11]	3.22
SHI-1	2.53
THP-1 [12]	2.45

cell viability [%], HL-60 [13]
Details	0.001 µM	0.01 µM	0.1 µM	1 µM	10 µM
co-treatment: AZD3965 100 nM	101	104	102	99.9	-0.192
co-treatment: DMSO vehicle	98.08	100.5	102.8	97.9	-0.533
co-treatment: GSK2194069 100 nM	101	102	104.6	87.9	-0.0941
co-treatment: pictilisib 100 nM	97.3	94.8	94.9	83.8	3.95

cell viability [%]
Details	1 nM	10 nM	100 nM	1000 nM	10000 nM
BV-173 [14]	93.3	99.9	101	71.4	-0.383
HL-60 [15]	92.7	100	102	85.7	0.441
K-562 [16]	102	91.5	106	77.3	0.672
KCL-22 [17]	92.3	109	90.3	93.5	1.29
KG-1 [18]	98.4	102	93.1	98.3	4.3
KU-812 [19]	94.6	110	94.9	92.2	3.51
LAMA-84 [20]	104	106	104	98.8	2.16
ML-2 [21]	102	100	92.8	72.6	-0.133
MOLM-13 [22]	98.6	87.6	99.5	75.7	0.668
MV4-11 [23]	95	90.4	89.7	44.4	-0.271
NOMO-1 [24]	94.9	103	105	100	0.949
THP-1 [25]	103	93.9	101	88	-0.152

O=C(NNc1ccccc1)c1ccncc1 [PluriSln 1]
Details	IC50 (cell viability) [µM]
BV-173 [1]	> 10
HEL	> 10
HL-60 [2]	5.48
K-562 [3]	9.7
KCL-22 [4]	8.52
KG-1 [5]	> 10
KU-812 [6]	> 10
LAMA-84 [7]	8.48
ML-2 [8]	> 10
MOLM-13 [9]	5.72
MV4-11 [10]	> 10
Mono-Mac-6	> 10
NOMO-1 [11]	> 10
SHI-1	> 10
THP-1 [12]	> 10

cell viability [%], HL-60 [13]
Details	0.001 µM	0.01 µM	0.1 µM	1 µM	10 µM
co-treatment: AZD3965 100 nM	101	101	96.2	110	36
co-treatment: DMSO vehicle	102	102	102	103	49.8
co-treatment: GSK2194069 100 nM	103.4	103	95.8	104	91.3
co-treatment: pictilisib 100 nM	94.1	107	83.7	116	92.411

cell viability [%]
Details	1 nM	10 nM	100 nM	1000 nM	10000 nM
BV-173 [14]	86	93.5	97	104	82.6
HL-60 [15]	102	94.1	90.5	109	20.7
K-562 [16]	93.4	85.7	90.4	86.4	52
KCL-22 [17]	89.9	102	99.7	110	41.5
KG-1 [18]	88.5	104	102	98.4	62.8
KU-812 [19]	93.3	93.8	93.2	102	92.5
LAMA-84 [20]	88.4	99.4	92.1	106	39.9
ML-2 [21]	93.3	97.6	92.8	103	81
MOLM-13 [22]	80.5	92	96.7	87.1	25.4
MV4-11 [23]	92.1	99.2	99.3	109	89.4
NOMO-1 [24]	91	101	91.8	106	89.6
THP-1 [25]	97.2	97.1	100	108	95.4
